Source: PubChem BioAssay (NCI)
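Compound exposure: 48 hours, 5 concentrations, 96-well plates. GI50: concentration for 50% inhibition of growth. TGI denotes the concentration required for complete inhibition of growth.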

Legend:
Experiment in all cases: inhibition of tumour cell growth, NCI panel, 48 h
HCT-116 colon = tested on: HCT-116 colon
SF-295 CNS = tested on: SF-295 CNS
SK-MEL-28 melanoma = tested on: SK-MEL-28 melanoma
SF-539 CNS = tested on: SF-539 CNS
UACC-257 melanoma = tested on: UACC-257 melanoma
NCI-H226 lung = tested on: NCI-H226 lung
OVCAR-3 ovarian = tested on: OVCAR-3 ovarian
SN12C renal = tested on: SN12C renal
HL-60(TB) leukemia = tested on: HL-60(TB) leukemia
UO-31 renal = tested on: UO-31 renal
SK-OV-3 ovarian = tested on: SK-OV-3 ovarian
HS 578T breast = tested on: HS 578T breast
OVCAR-5 ovarian = tested on: OVCAR-5 ovarian
MDA-MB-231 breast = tested on: MDA-MB-231 breast
OVCAR-4 ovarian = tested on: OVCAR-4 ovarian
A549 NSCLC = tested on: A549 NSCLC
HT29 colon = tested on: HT29 colon
SW-620 colon = tested on: SW-620 colon
RPMI-8226 leukemia = tested on: RPMI-8226 leukemia
LOX IMVI melanoma = tested on: LOX IMVI melanoma
CCRF-CEM leukemia = tested on: CCRF-CEM leukemia
786-0 renal = tested on: 786-0 renal
KM12 colon = tested on: KM12 colon
SNB-75 CNS = tested on: SNB-75 CNS
MCF7 breast = tested on: MCF7 breast
SK-MEL-2 melanoma = tested on: SK-MEL-2 melanoma
MOLT-4 leukemia = tested on: MOLT-4 leukemia
IGROV1 ovarian = tested on: IGROV1 ovarian
M14 melanoma = tested on: M14 melanoma
MALME-3M melanoma = tested on: MALME-3M melanoma
NCI/ADR-RES ovarian = tested on: NCI/ADR-RES ovarian
PC-3 prostate = tested on: PC-3 prostate
TK-10 renal = tested on: TK-10 renal
NCI-H522 lung = tested on: NCI-H522 lung
DU-145 prostate = tested on: DU-145 prostate
COLO 205 colon = tested on: COLO 205 colon
OVCAR-8 ovarian = tested on: OVCAR-8 ovarian
EKVX NSCLC = tested on: EKVX NSCLC
MDA-MB-435 = tested on: MDA-MB-435
HCT-15 colon = tested on: HCT-15 colon
NCI-H460 lung = tested on: NCI-H460 lung
BT-549 breast = tested on: BT-549 breast
SF-268 CNS = tested on: SF-268 CNS
A498 renal = tested on: A498 renal
HCC-2998 colon = tested on: HCC-2998 colon
T-47D breast = tested on: T-47D breast
UACC-62 melanoma = tested on: UACC-62 melanoma
RXF 393 renal = tested on: RXF 393 renal
HOP-62 NSCLC = tested on: HOP-62 NSCLC
U251 CNS = tested on: U251 CNS
SK-MEL-5 melanoma = tested on: SK-MEL-5 melanoma
CAKI-1 renal = tested on: CAKI-1 renal
HOP-92 NSCLC = tested on: HOP-92 NSCLC
K-562 leukemia = tested on: K-562 leukemia
NCI-H23 lung = tested on: NCI-H23 lung
ACHN renal = tested on: ACHN renal
SNB-19 CNS = tested on: SNB-19 CNS

## NNc1[nH]c(=S)[nH]c1C(N)=O
HCT-116 colon
  TGI: > 100 µM
SF-295 CNS
  TGI: > 100 µM
SK-MEL-28 melanoma
  TGI: > 100 µM
SF-539 CNS
  TGI: > 100 µM
UACC-257 melanoma
  TGI: > 100 µM
NCI-H226 lung
  TGI: > 100 µM
OVCAR-3 ovarian
  TGI: > 100 µM
SN12C renal
  TGI: > 100 µM
HL-60(TB) leukemia
  TGI: > 100 µM
UO-31 renal
  TGI: > 100 µM
SK-OV-3 ovarian
  TGI: > 100 µM
HS 578T breast
  TGI: > 100 µM
OVCAR-5 ovarian
  TGI: > 100 µM
MDA-MB-231 breast
  TGI: > 100 µM
OVCAR-4 ovarian
  TGI: > 100 µM
A549 NSCLC
  TGI: > 100 µM
HT29 colon
  TGI: > 100 µM
SW-620 colon
  TGI: > 100 µM
RPMI-8226 leukemia
  TGI: > 100 µM
LOX IMVI melanoma
  TGI: > 100 µM
CCRF-CEM leukemia
  TGI: > 100 µM
786-0 renal
  TGI: > 100 µM
KM12 colon
  TGI: > 100 µM
SNB-75 CNS
  TGI: > 100 µM
MCF7 breast
  TGI: > 100 µM
SK-MEL-2 melanoma
  TGI: > 100 µM
MOLT-4 leukemia
  TGI: > 100 µM
IGROV1 ovarian
  TGI: > 100 µM
M14 melanoma
  TGI: > 100 µM
MALME-3M melanoma
  TGI: > 100 µM
NCI/ADR-RES ovarian
  TGI: > 100 µM
PC-3 prostate
  TGI: > 100 µM
TK-10 renal
  TGI: > 100 µM
NCI-H522 lung
  TGI: > 100 µM
DU-145 prostate
  TGI: > 100 µM
COLO 205 colon
  TGI: > 100 µM
OVCAR-8 ovarian
  TGI: > 100 µM
EKVX NSCLC
  TGI: > 100 µM
MDA-MB-435
  TGI: > 100 µM
HCT-15 colon
  TGI: > 100 µM
NCI-H460 lung
  TGI: > 100 µM
BT-549 breast
  TGI: > 100 µM
SF-268 CNS
  TGI: > 100 µM
A498 renal
  TGI: > 100 µM
HCC-2998 colon
  TGI: > 100 µM
T-47D breast
  TGI: > 100 µM
UACC-62 melanoma
  TGI: > 100 µM
RXF 393 renal
  TGI: > 100 µM
HOP-62 NSCLC
  TGI: > 100 µM
U251 CNS
  TGI: > 100 µM
SK-MEL-5 melanoma
  TGI: > 100 µM

## COc1ccc(Cn2cc3c(c2-c2cc(OC)c(OC)c(OC)c2)CCc2cnoc2-3)cc1[N+](=O)[O-]
HCT-116 colon
  GI50: 0.587 µM
  TGI: > 100 µM
SF-295 CNS
  GI50: 0.328 µM
  TGI: 2.09 µM
SK-MEL-28 melanoma
  GI50: 3.39 µM
  TGI: > 100 µM
SF-539 CNS
  GI50: 1.12 µM
  TGI: 13.8 µM
UACC-257 melanoma
  GI50: 4.03 µM
  TGI: > 100 µM
NCI-H226 lung
  GI50: 4.33 µM
  TGI: > 100 µM
OVCAR-3 ovarian
  GI50: 0.441 µM
  TGI: 3.09 µM
SN12C renal
  GI50: 4.11 µM
  TGI: > 100 µM
HL-60(TB) leukemia
  GI50: 0.412 µM
  TGI: 7.98 µM
UO-31 renal
  GI50: 1.26 µM
  TGI: > 100 µM
SK-OV-3 ovarian
  GI50: 1.08 µM
  TGI: > 30.2 µM
HS 578T breast
  GI50: 1.13 µM
CAKI-1 renal
  GI50: 0.747 µM
  TGI: > 60.4 µM
OVCAR-5 ovarian
  GI50: 5.08 µM
  TGI: > 100 µM
MDA-MB-231 breast
  GI50: 2.13 µM
  TGI: > 41.2 µM
OVCAR-4 ovarian
  GI50: 3.75 µM
  TGI: > 100 µM
A549 NSCLC
  GI50: 1 µM
  TGI: > 100 µM
HT29 colon
  GI50: 0.411 µM
  TGI: 2.28 µM
SW-620 colon
  GI50: 0.482 µM
  TGI: > 100 µM
RPMI-8226 leukemia
  GI50: 1.39 µM
  TGI: > 29.9 µM
LOX IMVI melanoma
  GI50: 0.898 µM
  TGI: > 100 µM
CCRF-CEM leukemia
  GI50: 0.788 µM
  TGI: > 100 µM
786-0 renal
  GI50: 6.74 µM
  TGI: > 43.5 µM
KM12 colon
  GI50: 0.583 µM
  TGI: > 93.7 µM
SNB-75 CNS
  GI50: 0.849 µM
MCF7 breast
  GI50: 0.454 µM
  TGI: > 100 µM
HOP-92 NSCLC
  GI50: 1.07 µM
  TGI: 60.6 µM
SK-MEL-2 melanoma
  GI50: 0.366 µM
  TGI: 10.3 µM
MOLT-4 leukemia
  GI50: 1.4 µM
  TGI: > 100 µM
K-562 leukemia
  GI50: 0.358 µM
  TGI: > 100 µM
IGROV1 ovarian
  GI50: 0.82 µM
  TGI: 51.5 µM
NCI-H23 lung
  GI50: 1.46 µM
  TGI: > 30.3 µM
M14 melanoma
  GI50: 0.662 µM
  TGI: > 20.4 µM
MALME-3M melanoma
  GI50: 0.387 µM
  TGI: > 100 µM
ACHN renal
  GI50: 2.88 µM
  TGI: > 100 µM
NCI/ADR-RES ovarian
  GI50: 0.364 µM
PC-3 prostate
  GI50: 1.39 µM
  TGI: > 100 µM
TK-10 renal
  GI50: 3.57 µM
  TGI: > 84.3 µM
NCI-H522 lung
  GI50: 0.294 µM
  TGI: 1.64 µM
DU-145 prostate
  GI50: 1.91 µM
  TGI: > 21.3 µM
COLO 205 colon
  GI50: 0.73 µM
  TGI: 3.28 µM
OVCAR-8 ovarian
  GI50: 3.35 µM
  TGI: > 100 µM
EKVX NSCLC
  GI50: 1.43 µM
  TGI: > 100 µM
MDA-MB-435
  GI50: 0.219 µM
  TGI: 0.612 µM
HCT-15 colon
  GI50: 0.573 µM
  TGI: > 100 µM
NCI-H460 lung
  GI50: 0.721 µM
  TGI: > 28.8 µM
BT-549 breast
  GI50: 7.9 µM
  TGI: > 100 µM
SF-268 CNS
  GI50: 3.79 µM
  TGI: > 100 µM
A498 renal
  GI50: 0.617 µM
HCC-2998 colon
  GI50: 1.93 µM
  TGI: > 31.6 µM
T-47D breast
  GI50: 3.58 µM
  TGI: > 100 µM
UACC-62 melanoma
  GI50: 0.404 µM
  TGI: > 100 µM
RXF 393 renal
  GI50: 1.02 µM
  TGI: 6.22 µM
HOP-62 NSCLC
  GI50: 2.85 µM
  TGI: > 100 µM
SNB-19 CNS
  GI50: 1.87 µM
  TGI: > 100 µM
U251 CNS
  GI50: 1.2 µM
  TGI: > 100 µM
SK-MEL-5 melanoma
  GI50: 0.45 µM
  TGI: > 71.6 µM
